Where two headings read alike, the source gives them in different places. Some results are limits rather than exact numbers.

The results in this text go back to USRE47689E1, “Compounds for treating spinal muscular atrophy” (PTC Therapeutics, Inc., priority 2011, dated 2019).

Series [1] has as its system SMN2 minigene (full length SMN2 minigene mRNA containing SMN2 exon 7). Nature of the series: SMN2 minigene mRNA splicing RT-qPCR assay in cultured cells. The series is classed as cell-based, human. The conditions noted are these: Homo sapiens, HEK293-H, read-out: EC1.5x for production of full length SMN2 mRNA. In short, it runs like this:
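Full-length SMN2 minigene mRNA (exon 7 included), minigene-specific and not endogenous SMN, quantified by RT-qPCR multiplexed with GAPDH in stably transfected HEK293H cells after 24 h compound exposure at 37° C. Abundance from efficiency-corrected Ct, normalized to GAPDH and vehicle; EC1.5x reported as star bins.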
Background: In qPCR the cycle at which signal appears reflects the starting amount.

The next series concerns Smn protein. As to the kind of experiment: Smn protein assay in cultured cells (SMN HTRF). The format is cell-based, human. Conditions: 48 hours; for maximum fold (Fold) increase of Smn protein: SMA patient fibroblast cells, 7-point concentration data, fold increase relative to vehicle control (SMN HTRF); for EC1.5x (concentration giving 1.5-fold Smn protein increase): SMA Type 1 patient fibroblast cells (GM03813), 7-point concentration curve, SMN HTRF, concentration producing 1.5 times Smn protein vs DMSO vehicle control, read-out: EC1.5x for Smn protein expression. In short, it runs like this: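 Smn in SMA fibroblast lysates, measured by anti-SMN HTRF after 48 h compound exposure; EC1.5x from fold change over vehicle.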

Where [2] appears, read: HEK293H cells stably transfected with SMN2-A minigene, 24 hours, 7-point concentration curve, 1.5-fold relative to vehicle-treated cells.

Turning to `Cc1cnc2nc(-c3cc4ccc(O[C@@H]5CCNC5)cc4oc3=O)cn2c1.Cl.Cl` [Compound 327, 3-(6-methylimidazo[1,2-a]pyrimidin-2-yl)-7-[(3R)-pyrrolidin-3-yloxy]-2H-chromen-2-one hydrochloride (1:2)], the melting point lay in the range of 255 to 258 °C. The EC (1.5-fold) in series [1] (setting [2]) was 0.3 to 1 µM. Moreover, the “maximum fold (Fold) increase of Smn protein” value (“maximum fold (Fold) increase” below) in the series on Smn protein is “** (fold increase between >1.2 and ≤1.35)”.

Turning to `Cc1cc(F)cn2cc(-c3cc4ccc(N5CCN(C)CC5)cc4oc3=O)nc12` [Compound 329, 3-(6-fluoro-8-methylimidazo[1,2-a]pyridin-2-yl)-7-(4-methylpiperazin-1-yl)-2H-chromen-2-one], the melting point lay in the range of 223 to 233 °C. Further, in series [1] (setting [2]), the EC (1.5-fold) was 0.3 to 1 µM. Besides, in the series with Smn protein, the “maximum fold (Fold) increase” value is recorded as “* (maximum fold increase of ≤1.2)”.

`CCN1C[C@@H]2CN(c3ccc4cc(-c5cn6cc(C)nc(C)c6n5)c(=O)oc4c3)C[C@@H]2C1` [Compound 747, 3-(6,8-dimethylimidazo[1,2-a]pyrazin-2-yl)-7-[(3aR,6aS)-5-ethylhexahydropyrrolo[3,4-c]pyrrol-2(1H)-yl]-2H-chromen-2-one]: the melting point is 231 to 237 °C. Further, the EC (1.5-fold) in series [1] (setting [2]) was below 0.1 µM. Besides, in the series with Smn protein, the EC1.5x (concentration giving 1.5-fold Smn protein increase) was below 300 nM and the “maximum fold (Fold) increase” value is given as “***** (fold increase >1.65)”.

In turn, `Cc1ccc2oc(-c3cc4ccc(N5CCN(C)CC5)cc4oc3=O)cc2n1` [Cpd 698, 3-(5-methylfuro[3,2-b]pyridin-2-yl)-7-(4-methylpiperazin-1-yl)-2H-chromen-2-one] displayed a melting point of 178 to 180 °C. For the same compound, in series [1] (setting [2]), the EC (1.5-fold) was 1 to 3 µM. For the same compound, the “maximum fold (Fold) increase” value in the series with Smn protein is given as “* (maximum fold increase of ≤1.2)”.

Compound `Cc1cn2cc(-c3cc4ccc(OCCNCCO)cc4oc3=O)nc2c(C)n1` [Compound 959, 3-(6,8-dimethylimidazo[1,2-a]pyrazin-2-yl)-7-{2-[(2-hydroxyethyl)amino]ethoxy}-2H-chromen-2-one] came in with a melting point of 175 to 177 °C. Further, the EC (1.5-fold) in series [1] (setting [2]) was below 0.1 µM. Moreover, in the series with Smn protein, the EC1.5x (concentration giving 1.5-fold Smn protein increase) lay within 300 to 1000 nM; the “maximum fold (Fold) increase” value is “*** (fold increase between >1.35 and ≤1.5)”.

Regarding `Cc1cn2cc(-c3cc4ccc(N5CCC(C)(N)CC5)cc4oc3=O)nc2c(C)n1` [Compound 920, 7-(4-amino-4-methylpiperidin-1-yl)-3-(6,8-dimethylimidazo[1,2-a]pyrazin-2-yl)-2H-chromen-2-one], the melting point fell in the range of 190 to 192 °C. The EC (1.5-fold) in series [1] (setting [2]) is below 0.1 µM. Moreover, in the series on Smn protein, the EC1.5x (concentration giving 1.5-fold Smn protein increase) is below 300 nM and the “maximum fold (Fold) increase” value is listed as “***** (fold increase >1.65)”.

Take `Cc1cn2cc(-c3cc4ccc(CCCN(C)C)cc4oc3=O)cc(F)c2n1` [Compound 909, 7-[3-(dimethylamino)propyl]-3-(8-fluoro-2-methylimidazo[1,2-a]pyridin-6-yl)-2H-chromen-2-one]: the melting point was 185 to 188 °C. Moreover, the EC (1.5-fold) in series [1] (setting [2]) is below 0.1 µM. Also, in the series with Smn protein, the EC1.5x (concentration giving 1.5-fold Smn protein increase) is below 300 nM and the “maximum fold (Fold) increase” value is “***** (fold increase >1.65)”.

On to `COc1cc(OC)cc(-c2cc3ccc(N4CCCNCC4)cc3oc2=O)c1` [Compound 387, 7-(1,4-diazepan-1-yl)-3-(3,5-dimethoxyphenyl)-2H-chromen-2-one], for which the melting point was 238 to 240 °C. For the same compound, the EC (1.5-fold) in series [1] (setting [2]) lay in the range of 3 to 30 µM. Moreover, the “maximum fold (Fold) increase” value in the series on Smn protein was “* (maximum fold increase of ≤1.2)”.

Compound `CCN1CCN(c2ccc3cc(-c4cccc(OC)n4)c(=O)oc3c2)CC1` [Compound 360, 7-(4-ethylpiperazin-1-yl)-3-(6-methoxypyridin-2-yl)-2H-chromen-2-one] yielded a melting point of 145 to 147 °C. The EC (1.5-fold) in series [1] (setting [2]) was 1 to 3 µM. Also, in the series with Smn protein, the “maximum fold (Fold) increase” value was “* (maximum fold increase of ≤1.2)”.

`CC(C)NC(C)c1ccc2cc(-c3nc4ccccc4s3)c(=O)oc2c1` (stereo not drawn) [Compound 144, 3-(1,3-benzothiazol-2-yl)-7-[1-(propan-2-ylamino)ethyl]-2H-chromen-2-one] returned a melting point of 135 to 137 °C. In series [1] (setting [2]), the EC (1.5-fold) lay within 1 to 3 µM. For the same compound, the “maximum fold (Fold) increase” value with Smn protein is on record as “* (maximum fold increase of ≤1.2)”.

The compound `O=C(Oc1ccc2cc(-c3nc4c(Cl)cccc4s3)c(=O)oc2c1)N1CCNCC1` [Cpd 42, 3-(4-chloro-1,3-benzothiazol-2-yl)-2-oxo-2H-chromen-7-yl piperazine-1-carboxylate] showed a melting point of 236 to 239 °C. In addition, in series [1] (24 h), the EC (1.5-fold) is 1 to 3 µM. In addition, in the series on Smn protein, the “maximum fold (Fold) increase” value is “* (maximum fold increase of ≤1.2)”.

Turning to `Cc1cn2cc(-c3cc4ccc(N5CCC(N(C)C)C5)cc4oc3=O)nc2s1` (stereo not drawn) [Compound 154, 7-[3-(dimethylamino)pyrrolidin-1-yl]-3-(2-methylimidazo[2,1-b][1,3]thiazol-6-yl)-2H-chromen-2-one], the melting point fell in the range of 180 to 183 °C. The EC (1.5-fold) in series [1] (setting [2]) was 3 to 30 µM. Moreover, the “maximum fold (Fold) increase” value in the series on Smn protein is recorded as “* (maximum fold increase of ≤1.2)”.

For `Cc1cn2cc(-c3cc4ccc(C5CCNCC5)cc4oc3=O)nc2cn1` [Compound 868, 3-(6-methylimidazo[1,2-a]pyrazin-2-yl)-7-(piperidin-4-yl)-2H-chromen-2-one], the melting point lay within 247 to 253 °C. The EC (1.5-fold) in series [1] (setting [2]) is below 0.1 µM. In the series with Smn protein, the EC1.5x (concentration giving 1.5-fold Smn protein increase) was below 300 nM and the “maximum fold (Fold) increase” value is “***** (fold increase >1.65)”.

In turn, `Cc1cc(F)c2nc(-c3cc4ccc(N5C[C@@H](C)N[C@@H](C)C5)cc4oc3=O)cn2c1` [Compound 354, 7-[(3R,5S)-3,5-dimethylpiperazin-1-yl]-3-(8-fluoro-6-methylimidazo[1,2-a]pyridin-2-yl)-2H-chromen-2-one] returned a melting point of 268 to 275 °C. The EC (1.5-fold) in series [1] (setting [2]) was below 0.1 µM. In addition, in the series with Smn protein, the EC1.5x (concentration giving 1.5-fold Smn protein increase) lay within 1000 to 3000 nM; the “maximum fold (Fold) increase” value is “*** (fold increase between >1.35 and ≤1.5)”.

The compound `Cc1cn2cc(-c3cc4ccc(CCCCN(C)C)cc4oc3=O)nc2c(C)n1` [Cpd 902, 7-[4-(dimethylamino)butyl]-3-(6,8-dimethylimidazo[1,2-a]pyrazin-2-yl)-2H-chromen-2-one] returned a melting point of 190 to 193 °C. In addition, the EC (1.5-fold) in series [1] (setting [2]) was below 0.1 µM. In addition, in the series on Smn protein, the EC1.5x (concentration giving 1.5-fold Smn protein increase) was below 300 nM and the “maximum fold (Fold) increase” value is reported as “***** (fold increase >1.65)”.

The compound `Cc1cn2cc(-c3cc4ccc(N5C[C@H]6CN(CCO)C[C@H]6C5)cc4oc3=O)nc2c(C)n1` [Compound 741, 3-(6,8-dimethylimidazo[1,2-a]pyrazin-2-yl)-7-[(3aR,6aS)-5-(2-hydroxyethyl)hexahydropyrrolo[3,4-c]pyrrol-2(1H)-yl]-2H-chromen-2-one] returned a melting point of 258 to 268 °C. For the same compound, the EC (1.5-fold) in series [1] (setting [2]) was below 0.1 µM. In addition, in the series on Smn protein, the EC1.5x (concentration giving 1.5-fold Smn protein increase) is below 300 nM and the “maximum fold (Fold) increase” value is “***** (fold increase >1.65)”.

With `Cc1cc(Cl)c2nc(-c3cc4ccc(N5C[C@@H](C)N[C@@H](C)C5)cc4oc3=O)cn2c1` [Compound 342, 3-(8-chloro-6-methylimidazo[1,2-a]pyridin-2-yl)-7-[(3R,5S)-3,5-dimethylpiperazin-1-yl]-2H-chromen-2-one], the melting point lay within 258 to 263 °C. Moreover, the EC (1.5-fold) in series [1] (setting [2]) fell in the range of 0.1 to 0.3 µM. Also, the “maximum fold (Fold) increase” value in the series on Smn protein was “** (fold increase between >1.2 and ≤1.35)”.

Compound `O=c1oc2cc(N3CCNCC3)ccc2cc1Nc1ccc(Cl)cn1` [Compound 65, 3-[(5-chloropyridin-2-yl)amino]-7-(piperazin-1-yl)-2H-chromen-2-one] returned a melting point of 253 to 255 °C. Moreover, the EC (1.5-fold) in series [1] (setting [2]) lay in the range of 0.3 to 1 µM. Further, in the series on Smn protein, the “maximum fold (Fold) increase” value is given as “* (maximum fold increase of ≤1.2)”.

Regarding `CCNCCCc1ccc2cc(-c3cn4cc(C)nc(C)c4n3)c(=O)oc2c1` [Compound 926, 3-(6,8-dimethylimidazo[1,2-a]pyrazin-2-yl)-7-[3-(ethylamino)propyl]-2H-chromen-2-one], the melting point was 184 to 186 °C. In series [1] (setting [2]), the EC (1.5-fold) is below 0.1 µM. In the series on Smn protein, the EC1.5x (concentration giving 1.5-fold Smn protein increase) was below 300 nM; the “maximum fold (Fold) increase” value was “**** (fold increase between >1.5 and ≤1.65)”.

On to `C[C@@H]1CN(c2ccc3cc(-c4cn5ccccc5n4)c(=O)oc3c2)C[C@H](C)N1` [Compound 139, 7-[(3R,5S)-3,5-dimethylpiperazin-1-yl]-3-(imidazo[1,2-a]pyridin-2-yl)-2H-chromen-2-one], for which the melting point is 261 °C (dec.). Also, the EC (1.5-fold) in series [1] (setting [2]) fell in the range of 1 to 3 µM. Further, the “maximum fold (Fold) increase” value with Smn protein is “*** (fold increase between >1.35 and ≤1.5)”.

With `O=c1oc2cc(N3CCCNCC3)ccc2cc1-c1cc2ccccn2n1` [Compound 192, 7-(1,4-diazepan-1-yl)-3-(pyrazolo[1,5-a]pyridin-2-yl)-2H-chromen-2-one], the melting point lay in the range of 178 to 180 °C. In addition, the EC (1.5-fold) in series [1] (setting [2]) lay within 0.3 to 1 µM. In addition, the “maximum fold (Fold) increase” value in the series on Smn protein was “** (fold increase between >1.2 and ≤1.35)”.

For orientation: melting point means the temperature of the solid-liquid transition.
